Results reported in ChEMBL document CHEMBL3997767, “Magnetic Microbead Affinity Selection Screening (MagMASS) of Botanical Extracts for Inhibitors of 15-Lipoxygenase” (J Nat Prod, 2016).
Activity calls are given as the source filed them. The calls are words filed in the database; no cut-off is given here.

Assays:
Glycine max [1] = assay: Binding affinity to soybean p1 15-LOX at 100 pmol after 1 hr by magnetic microbead affinity selection screening method
[2] = target: T1, Polyunsaturated fatty acid lipoxygenase ALOX15 (Homo sapiens, UniProt P16050); assay: Inhibition of 15-LOX (unknown origin)
T1 sequence (P16050 whole entry): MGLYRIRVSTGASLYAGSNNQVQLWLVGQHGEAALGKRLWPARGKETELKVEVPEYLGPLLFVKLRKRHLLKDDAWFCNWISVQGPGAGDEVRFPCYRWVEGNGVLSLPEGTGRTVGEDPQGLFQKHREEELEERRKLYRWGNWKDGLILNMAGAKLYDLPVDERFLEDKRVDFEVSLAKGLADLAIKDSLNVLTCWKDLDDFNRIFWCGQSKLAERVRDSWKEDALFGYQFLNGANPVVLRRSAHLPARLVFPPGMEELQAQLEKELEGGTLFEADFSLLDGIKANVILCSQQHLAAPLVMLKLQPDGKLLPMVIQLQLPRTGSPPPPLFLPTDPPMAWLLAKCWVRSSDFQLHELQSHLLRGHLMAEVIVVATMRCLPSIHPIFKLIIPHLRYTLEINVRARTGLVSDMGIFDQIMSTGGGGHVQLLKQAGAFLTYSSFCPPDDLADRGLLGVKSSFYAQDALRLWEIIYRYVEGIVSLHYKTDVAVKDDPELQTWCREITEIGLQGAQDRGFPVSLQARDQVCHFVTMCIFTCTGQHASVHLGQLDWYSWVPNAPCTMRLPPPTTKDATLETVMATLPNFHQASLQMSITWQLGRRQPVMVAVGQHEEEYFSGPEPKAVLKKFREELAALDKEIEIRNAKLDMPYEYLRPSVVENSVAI

[3] = Inhibition of 15-LOX in soybean using linoleic acid as substrate measured for 30 to 90 secs; set-up: species or system Glycine max
Glycine max [4] = assay: Binding affinity to soybean p1 15-LOX at 10 ug after 1 hr by magnetic microbead affinity selection screening method

O=c1c2ccccc2[se]n1-c1ccccc1
Activity (Glycine max [1]): inactive

O=c1cc(-c2ccc(O)c(O)c2)oc2cc(O)cc(O)c12 [LUTEOLIN]
Activity (Glycine max [1]): Active
IC50 [2]: 5 µM

C[C@@H]1O[C@@H](Oc2c(-c3ccc(O)c(O)c3)oc3cc(O)cc(O)c3c2=O)[C@H](O)[C@H](O)[C@H]1O [QUERCITRIN]
IC50 [3]: 79.8 µM
Activity (Glycine max [4]): Active
